Assay type in all cases: biochemical
One assay addresses T1, TrkA (Homo sapiens, UniProt P04629).
T1 construct: purchased Invitrogen
In words: HTRF KinEASE kinase assay, recombinant Human TRK enzyme, TrkA (NTRK1). As to conditions: NTRK1 4 nM, read-out: TrkA Enz. The protocol:
(§1) A suitable assay for determining the Trk inhibition activity of a compound is detailed herein below.
(§2) To determine the IC50 of small molecule compounds for the Human TRK receptors, HTRF® KinEASE™ kinase kits from Cisbio were used. Assays were carried out in low volume, black 384-well plates.
(§3) Recombinant Human TRK enzymes (Invitrogen) were incubated in the presence or absence of the compound (11-point dose response with FAC as 10 μM) for 30 minutes at 23° C. Kinase reaction was started by addition of ATP to a mixture containing the enzyme (NTRK1-4 nM, NTRK2-1 nM, NTRK3-10 nM) and substrate (1 μM). Kinase reaction was allowed to carry on for 10 to 45 minutes at 23° C. after which it was stopped by addition of the detection mix (supplied by vendor) containing EDTA, TK-Ab-labelled with Eu^3+-cryptate (1:200 dilutions) and Streptavidin-XL665 (250 nM). Assay plates were incubated in this detection mix for 60 minutes at 23° C. The resulting TR-FRET signal, calculated as the fluorescence ratio at 665/620 nm, was read on an Envision and was proportional to the level of phosphorylation of the peptide in the presence or absence of the compound. The uniformity of the plates were assured with Z′ value [1−{3*(SDHPE+SDZPE)/(ZPE−HPE)}]. The percent (%) effect i.e. Inhibition of compound was calculated in comparison to the signal in the positive (HPE) and negative control (ZPE) wells within each assay plate. The endpoint value % Inhibition for the Standard compound was evaluated in each experiment as a quality control measure. IC50 was determined by plotting compound inhibition at respective dose in Graphpad prism5 using four parameter logistic curve fit.
For orientation: TR-FRET usually uses a lanthanide donor and a delayed reading to cut background.

A further assay deals with T2, TrkB (Homo sapiens, UniProt Q16620).
T2 construct: purchased Invitrogen
T2 sequence (Q16620 32-822): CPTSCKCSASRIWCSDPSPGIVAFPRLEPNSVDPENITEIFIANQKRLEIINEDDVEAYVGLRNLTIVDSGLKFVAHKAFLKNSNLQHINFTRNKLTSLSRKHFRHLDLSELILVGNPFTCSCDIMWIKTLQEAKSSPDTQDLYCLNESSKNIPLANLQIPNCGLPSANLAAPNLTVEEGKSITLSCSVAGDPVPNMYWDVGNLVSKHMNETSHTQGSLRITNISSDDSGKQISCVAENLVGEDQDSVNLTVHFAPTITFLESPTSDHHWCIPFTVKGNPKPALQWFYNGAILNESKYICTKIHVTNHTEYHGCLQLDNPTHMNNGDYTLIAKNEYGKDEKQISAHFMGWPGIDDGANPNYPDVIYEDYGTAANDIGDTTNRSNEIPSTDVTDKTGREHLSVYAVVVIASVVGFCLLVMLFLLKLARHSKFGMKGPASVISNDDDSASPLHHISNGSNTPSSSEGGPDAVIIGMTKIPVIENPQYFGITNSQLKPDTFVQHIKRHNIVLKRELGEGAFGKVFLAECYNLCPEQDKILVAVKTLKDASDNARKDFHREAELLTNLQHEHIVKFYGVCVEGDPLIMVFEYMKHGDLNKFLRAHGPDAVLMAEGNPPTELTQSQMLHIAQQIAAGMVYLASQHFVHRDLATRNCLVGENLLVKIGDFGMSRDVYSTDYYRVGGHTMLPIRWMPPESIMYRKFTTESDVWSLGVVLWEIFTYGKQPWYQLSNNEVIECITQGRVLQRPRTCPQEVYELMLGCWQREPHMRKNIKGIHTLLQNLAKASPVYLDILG
The assay is described as follows: HTRF KinEASE kinase assay, recombinant Human TRK enzyme, TrkB (NTRK2). The settings on record: NTRK2 1 nM, read-out: TrkB Enz. The protocol: as §1, §2, §3

The next assay concerns the target T3, TrkC (Homo sapiens, UniProt Q16288).
T3 construct: purchased Invitrogen
In words: HTRF KinEASE kinase assay, recombinant Human TRK enzyme, TrkC (NTRK3). The settings on record: NTRK3 10 nM, read-out: TrkC Enz. As for the experimental part:
as §1, §2, §3

T3 sequence (Q16288 32-839): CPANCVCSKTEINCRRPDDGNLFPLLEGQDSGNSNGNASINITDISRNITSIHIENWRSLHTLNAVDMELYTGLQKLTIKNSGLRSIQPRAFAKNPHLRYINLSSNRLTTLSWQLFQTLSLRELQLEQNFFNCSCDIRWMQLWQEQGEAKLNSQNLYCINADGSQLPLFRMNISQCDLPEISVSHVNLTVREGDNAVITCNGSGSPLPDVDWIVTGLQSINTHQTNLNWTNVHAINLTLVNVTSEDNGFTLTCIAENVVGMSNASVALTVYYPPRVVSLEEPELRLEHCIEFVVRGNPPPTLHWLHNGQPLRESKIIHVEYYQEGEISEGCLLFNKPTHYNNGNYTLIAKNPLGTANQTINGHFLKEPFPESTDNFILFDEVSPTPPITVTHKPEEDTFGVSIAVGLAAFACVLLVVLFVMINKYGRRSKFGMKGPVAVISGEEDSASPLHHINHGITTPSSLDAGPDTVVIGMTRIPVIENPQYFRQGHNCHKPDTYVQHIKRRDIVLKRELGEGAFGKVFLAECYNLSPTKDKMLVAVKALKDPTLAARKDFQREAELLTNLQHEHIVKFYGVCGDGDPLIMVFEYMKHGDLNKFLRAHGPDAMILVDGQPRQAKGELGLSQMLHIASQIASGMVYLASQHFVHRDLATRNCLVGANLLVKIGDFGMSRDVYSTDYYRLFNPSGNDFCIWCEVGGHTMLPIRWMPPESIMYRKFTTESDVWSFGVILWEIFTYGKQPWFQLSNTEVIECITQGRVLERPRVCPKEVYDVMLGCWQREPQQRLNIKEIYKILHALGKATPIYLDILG
T1 sequence (P04629 33-796): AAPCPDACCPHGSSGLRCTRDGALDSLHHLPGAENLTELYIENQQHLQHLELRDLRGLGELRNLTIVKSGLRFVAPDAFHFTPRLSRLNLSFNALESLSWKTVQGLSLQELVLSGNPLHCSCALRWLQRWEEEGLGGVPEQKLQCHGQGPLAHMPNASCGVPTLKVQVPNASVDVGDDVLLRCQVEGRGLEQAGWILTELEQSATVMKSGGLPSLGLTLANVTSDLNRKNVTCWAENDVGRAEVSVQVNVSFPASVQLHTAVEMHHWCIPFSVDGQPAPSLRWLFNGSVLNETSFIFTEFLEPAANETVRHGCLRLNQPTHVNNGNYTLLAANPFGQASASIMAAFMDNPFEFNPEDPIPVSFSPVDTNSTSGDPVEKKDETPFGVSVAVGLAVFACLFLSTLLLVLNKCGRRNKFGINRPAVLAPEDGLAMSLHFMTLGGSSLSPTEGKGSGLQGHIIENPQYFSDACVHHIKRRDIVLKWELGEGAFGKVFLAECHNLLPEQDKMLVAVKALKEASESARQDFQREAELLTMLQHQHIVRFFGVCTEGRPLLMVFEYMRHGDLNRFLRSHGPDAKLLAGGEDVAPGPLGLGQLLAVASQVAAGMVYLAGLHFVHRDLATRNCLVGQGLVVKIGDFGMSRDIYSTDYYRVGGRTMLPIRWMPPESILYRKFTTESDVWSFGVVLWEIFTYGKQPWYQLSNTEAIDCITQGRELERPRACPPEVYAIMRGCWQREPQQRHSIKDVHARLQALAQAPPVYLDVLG

As for `CSc1cc(F)cc([C@H]2C[C@H](F)CN2c2ccc3ncc(C(=O)NC4CN(Cc5ccc(F)c(O)c5)C4)n3n2)c1` [Example 19, 6-[(2R,4S)-4-fluoro-2-[3-fluoro-5-(methylsulfanyl)phenyl]pyrrolidin-1-yl]-N-{1-[(4-fluoro-3-hydroxyphenyl)methyl]azetidin-3-yl}imidazo[1,2-b]pyridazine-3-carboxamide], the IC50 was determined as 2.46 nM on TrkA, 3.04 nM on TrkB and 2.99 nM at TrkC.
On to `CSc1ccc(F)cc1[C@H]1C[C@H](F)CN1c1ccc2ncc(C(=O)NC3CCN(Cc4ccc(F)c(O)c4)CC3)n2n1` [Example 6, 6-[(2R,4S)-4-fluoro-2-[5-fluoro-2-(methylsulfanyl)phenyl]pyrrolidin-1-yl]-N-{1-[(4-fluoro-3-hydroxyphenyl)methyl]piperidin-4-yl}imidazo[1,2-b]pyridazine-3-carboxamide], for which the IC50 on TrkA came out at 1.47 nM; on TrkB it was 0.81 nM; at TrkC, 1.56 nM.
In the same order, the values of `CSc1cc(F)cc([C@H]2C[C@H](F)CN2c2ccc3ncc(C(=O)N[C@H]4CCN(C(=O)c5cccc(O)c5)C4)n3n2)c1` [Example 27, 6-[(2R,4S)-4-fluoro-2-[3-fluoro-5-(methylsulfanyl)phenyl]pyrrolidin-1-yl]-N-[(3S)-1-(3-hydroxybenzoyl)pyrrolidin-3-yl]imidazo[1,2-b]pyridazine-3-carboxamide] are 1.34 nM, 1.01 nM and 1.87 nM.
For `CSc1cc(F)cc([C@H]2C[C@H](F)CN2c2ccc3ncc(C(=O)N[C@H]4CCN(Cc5cccc(O)c5)C4)n3n2)c1` [Example 17, 6-[(2R,4S)-4-fluoro-2-[3-fluoro-5-(methylsulfanyl)phenyl]pyrrolidin-1-yl]-N-[(3S)-1-[(3-hydroxyphenyl)methyl]pyrrolidin-3-yl]imidazo[1,2-b]pyridazine-3-carboxamide] the same measures were 2.41 nM, 5.04 nM and 4.62 nM.
In the same order, the values of `CSc1cc(F)cc([C@H]2C[C@H](F)CN2c2ccc3ncc(C(=O)N[C@H]4CCN(Cc5ccc(F)c(O)c5)C4)n3n2)c1` [Example 18, 6-[(2R,4S)-4-fluoro-2-[3-fluoro-5-(methylsulfanyl)phenyl]pyrrolidin-1-yl]-N-[(3S)-1-[(4-fluoro-3-hydroxyphenyl)methyl]pyrrolidin-3-yl]imidazo[1,2-b]pyridazine-3-carboxamide] are 2.87 nM, 7.82 nM and 5.19 nM.

The record behind these values is patent US20210253572A1, “IMIDAZO[1,2-B]PYRIDAZINES AS TRK INHIBITORS” (BenevolentAl Bio Limited, priority 2018, published 2021).
